According to patent US8461206B2, “Use of at least one (dihydro)jasmonic acid derivative for treating dry skin” (L'Oreal, priority 2003, dated 2013):

Tests used:
Format in all cases: cell-based
[1] = tested on: immortalized human sebocytes derived from the SZ95 line; assay: cell viability (LDH) assay; settings: in parallel to the lipogenesis test
[2] = tested on: immortalized human sebocytes derived from the SZ95 line; assay: cell proliferation (MUH) assay; settings: in parallel to the lipogenesis test
[3] = tested on: immortalized human sebocytes derived from the SZ95 line; assay: lipogenesis in immortalized human sebocytes in culture (Nile Red fluorescence); settings: 10^-4 M, 0.1% DMSO, treatment for 48 hours, Nile Red 1 μg/ml, cells at confluence, p<0.001
Method: Methyl dihydrojasmonate (provided by BEDOUKIAN) was tested on a model of immortalized human sebocytes in culture, derived from the SZ95 line described in Zouboulis, C. C., Seltmann, H., Neitzel, H. & Orfanos, C. E., Establishment and Characterization of an Immortalized Human Sebaceous Gland Cell Line, J. Invest. Dermatol., 113, 1011-1020 (1999).
The test consisted in measuring the amount of lipids produced by the sebocytes of the line (at confluence), in the presence or absence of active agent diluted in DMSO, such that the final amount of DMSO in the culture medium was 0.1% and the amount of methyl dihydrojasmonate was 10^−4 M. After treatment for 48 hours, the adherent cells were treated with Nile Red (1 μg/ml). The lipid content was then quantified by measuring the fluorescence of the dye (two excitation/emission couples: 485-540 nm for the neutral lipids and 540-620 nm for the normeutral lipids). The results were given for the total lipids (combination of the two measurements).
The experiment was carried out in sextuplicate (assayed products and control) in a 96-well plate, and repeated four times.

CCCCCC1C(=O)CCC1CC(=O)OC (stereo not drawn) [methyl dihydrojasmonate]
modification of cell viability (LDH) [1]: not related to a modification | modification of cell proliferation (MUH) [2]: not related to a modification | increase in amount of neutral lipids synthesized by the sebocytes compared to the untreated control [3]: 98%
